# According to US10870651B2, “Inhibitors of cyclin-dependent kinase 7 (CDK7)” (Dana-Farber Cancer Institute, Inc., priority 2014, dated 2020):
# Key:
# Kelly neuroblastoma = assay: Inhibition of cell proliferation (CellTiter-Glo), Kelly; format: cell-based; conditions: 72 hours incubation, CellTiter-Glo, 4,000 cells/well
# Description: (§1) Exemplary compounds of the invention were tested at different concentrations. Cells were plated in 96-well plates at the following seeding densities: Jurkat T-cell acute lymphoblastic leukemia 25,000 cells/well; HCT116 colorectal carcinoma 8,000 cells/well; Kelly neuroblastoma 4,000 cells/well. The cells were treated with various concentration of compounds (ranging from 1 nM to 10 μM). DMSO solvent with no compound served as a control. Following incubation for 72 hours, cell survival following treatment with exemplary compounds described herein was assessed by CellTiter-Glo® Luminescent cell viability assay (Promega). IC50 values were determined using GRAPHPAD PRISM 6 software. Exemplary results are shown in Table A3, wherein “A” represents a calculated IC50 value of less than 500 nM; “B” represents a calculated IC50 value of greater than or equal to 500 nM and less than 5000 μM; and “C” represents a calculated IC50 value of 5000 μM or greater
# CDK7 = CDK7 (Homo sapiens (Human), UniProt P50613); assay: Inhibition of kinase activity, CDK7; format: biochemical; conditions: co-factors cyclin H and MNAT1
# Chain of CDK7 (P50613 whole entry): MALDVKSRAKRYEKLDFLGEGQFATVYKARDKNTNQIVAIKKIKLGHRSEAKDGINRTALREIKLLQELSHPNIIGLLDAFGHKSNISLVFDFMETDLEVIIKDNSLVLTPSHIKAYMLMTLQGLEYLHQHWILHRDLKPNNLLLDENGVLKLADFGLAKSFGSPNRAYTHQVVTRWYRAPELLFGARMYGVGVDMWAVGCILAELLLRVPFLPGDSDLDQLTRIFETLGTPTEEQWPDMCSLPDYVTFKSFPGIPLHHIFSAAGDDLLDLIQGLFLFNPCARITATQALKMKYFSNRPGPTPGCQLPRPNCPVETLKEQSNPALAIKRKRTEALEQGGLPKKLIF
# Chain of CDK7 (P51946 whole entry partner): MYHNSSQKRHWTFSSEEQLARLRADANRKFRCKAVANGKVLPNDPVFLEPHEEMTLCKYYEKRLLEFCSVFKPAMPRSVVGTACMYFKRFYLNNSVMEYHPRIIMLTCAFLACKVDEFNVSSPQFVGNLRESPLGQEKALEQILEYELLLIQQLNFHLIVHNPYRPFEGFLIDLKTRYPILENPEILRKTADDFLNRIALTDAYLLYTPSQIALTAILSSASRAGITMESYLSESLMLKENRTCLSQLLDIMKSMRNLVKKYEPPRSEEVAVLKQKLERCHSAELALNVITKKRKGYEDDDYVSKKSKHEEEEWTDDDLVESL
# Chain of CDK7 (P51948 whole entry partner): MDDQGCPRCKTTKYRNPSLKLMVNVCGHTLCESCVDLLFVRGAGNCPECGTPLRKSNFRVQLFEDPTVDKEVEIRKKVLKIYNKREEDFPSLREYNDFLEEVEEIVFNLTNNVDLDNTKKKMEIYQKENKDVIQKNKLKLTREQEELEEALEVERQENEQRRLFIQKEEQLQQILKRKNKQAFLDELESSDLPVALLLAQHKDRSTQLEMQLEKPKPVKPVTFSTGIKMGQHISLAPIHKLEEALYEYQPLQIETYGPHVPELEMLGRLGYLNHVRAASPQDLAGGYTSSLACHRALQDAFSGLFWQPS
# Description: Compounds of the invention were assayed for activity against a variety of different kinases. Exemplary results are presented as calculated IC50 values (Table A1 & A2). In Table A1 and A2 “A” represents a calculated IC50 value of less than 100 nM; “B” represents a calculated IC50 value of greater than or equal to 100 nM and less than 1 μM; and “C” represents a calculated IC50 value of 1 μM or greater. The co-factors used for each kinase in the assays were as follows: CDK7: cyclin H and MNAT1; CDK2: cyclin A; CDK9: cyclin K.
# [1] = tested on: Jurkat T-cell acute lymphoblastic leukemia; assay: Inhibition of cell proliferation (CellTiter-Glo), Jurkat; format: cell-based; conditions: Homo sapiens, 72 hours incubation, CellTiter-Glo, 25,000 cells/well
# Description: as §1
IC50 (Kelly neuroblastoma),IC50 (CDK7),IC50 [1],SMILES
,< 0.1 µM,0.5 to 5000 µM,"C=CC(=O)Nc1ccc(C(=O)Nc2cccc(Nc3n[nH]c4c3CN(C(=O)N3CCN(C)CC3)C4(C)C)c2)cc1 [Compound 107, 4-acrylamido-N-(3-((6,6-dimethyl-5-(4-methylpiperazine-1-carbonyl)-1,4,5,6-tetrahydropyrrolo[3,4-c]pyrazol-3-yl)amino)phenyl)benzamide]"
,≥ 1 µM,,"C=CC(=O)Nc1ccc(C(=O)Nc2c3c(nn2C)C(C)(C)N(C(=O)N[C@H](CN(C)C)c2ccccc2)C3)cc1 [Compound 242, (S)-3-(4-acrylamidobenzamido)-N-(2-(dimethylamino)-1-phenylethyl)-2,6,6-trimethyl-2,6-dihydropyrrolo[3,4-c]pyrazole-5(4H)-carboxamide]"
,< 0.1 µM,,"C=CC(=O)Nc1cccc(C(=O)Nc2nn(C)c3c2CN(C(=O)N[C@H](CN(C)C)c2ccccc2)C3(C)C)c1 [Compound 241, (S)-3-(3-acrylamidobenzamido)-N-(2-(dimethylamino)-1-phenylethyl)-1,6,6-trimethyl-4,6-dihydropyrrolo[3,4-c]pyrazole-5(1H)-carboxamide]"
,≥ 1 µM,,"C=CC(=O)Nc1ccc(C(=O)Nc2c3c(nn2C)C(C)(C)N(C(=O)N[C@H](CN(C)C)c2ccccc2)C3)c(OC)c1 [Compound 244, (S)-3-(4-acrylamido-2-methoxybenzamido)-N-(2-(dimethylamino)-1-phenylethyl)-2,6,6-trimethyl-2,6-dihydropyrrolo[3,4-c]pyrazole-5(4H)-carboxamide]"

# Second part, the compound before the results:
SMILES,IC50 (Kelly neuroblastoma),IC50 (CDK7),IC50 [1]
"C=CC(=O)Nc1ccc(C(=O)Nc2ccc(Nc3n[nH]c4c3CN(C(=O)N[C@H](CN(C)C)c3ccccc3)C4(C)C)cc2)cc1 [Compound 102, (S)-3-((4-(4-acrylamidobenzamido)phenyl)amino)-N-(2-(dimethylamino)-1-phenylethyl)-6,6-dimethyl-4,6-dihydropyrrolo[3,4-c]pyrazole-5(1H)-carboxamide]",≥ 5000 µM,< 0.1 µM,
"C=CC(=O)Nc1ccc(C(=O)Nc2cccc(C(=O)Nc3n[nH]c4c3CN(C(=O)N[C@H](CN(C)C)c3ccccc3)C4(C)C)c2)cc1 [Compound 112, (S)-3-(3-(4-acrylamidobenzamido)benzamido)-N-(2-(dimethylamino)-1-phenylethyl)-6,6-dimethyl-4,6-dihydropyrrolo[3,4-c]pyrazole-5(1H)-carboxamide]",0.5 to 5000 µM,< 0.1 µM,
"C=CC(=O)Nc1ccc(C(=O)Nc2n[nH]c3c2CN(C(=O)N[C@H](CN(C)C)c2ccccc2)C3(C)C)cc1 [Compound 214, (S)-3-(4-acrylamidobenzamido)-N-(2-(dimethylamino)-1-phenylethyl)-6,6-dimethyl-4,6-dihydropyrrolo[3,4-c]pyrazole-5(1H)-carboxamide]",,< 0.1 µM,
"C=CC(=O)Nc1cccc(Nc2n[nH]c3c2CN(C(=O)N[C@H](CN(C)C)c2ccccc2)C3(C)C)c1 [Compound 110, (S)-3-((3-acrylamidophenyl)amino)-N-(2-(dimethylamino)-1-phenylethyl)-6,6-dimethyl-4,6-dihydropyrrolo[3,4-c]pyrazole-5(1H)-carboxamide]",,< 0.1 µM,
"C=CC(=O)Nc1ccc(C(=O)N[C@H]2CCC[C@@H](Nc3n[nH]c4c3CN(C(=O)N[C@H](CN(C)C)c3ccccc3)C4(C)C)C2)cc1 [Compound 117, 3-(((1R,3S)-3-(4-acrylamidobenzamido)cyclohexyl)amino)-N-((S)-2-(dimethylamino)-1-phenylethyl)-6,6-dimethyl-4,6-dihydropyrrolo[3,4-c]pyrazole-5(1H)-carboxamide]",,< 0.1 µM,
"C=CC(=O)Nc1cccc(C(=O)Nc2cccc(Nc3n[nH]c4c3CN(C(=O)N[C@H](CN(C)C)c3ccccc3)C4(C)C)c2)c1 [Compound 105, (S)-3-((3-(3-acrylamidobenzamido)phenyl)amino)-N-(2-(dimethylamino)-1-phenylethyl)-6,6-dimethyl-4,6-dihydropyrrolo[3,4-c]pyrazole-5(1H)-carboxamide]",,< 0.1 µM,
